The subject of this assay is IL-1β production in PMA-differentiated THP-1 cells. As to the kind of experiment: IL-1β production in PMA-differentiated THP-1 cells stimulated with gramicidin (hTHP-1 assay, 2% fetal bovine serum; Procedures 1-3). The following applies: Table B3; hTHP-1 assay containing 2% fetal bovine serum, gramicidin stimulation, IL-1β readout; read-out: hTHP-1 IC50. The format is cell-based, human. Summed up:
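IL-1β released into supernatants was read by HTRF after 2 h gramicidin (5 μM) challenge. Before challenge, compounds (3-fold dilutions, top 100 μM, 0.37% DMSO) were given 1 h on THP-1 cells differentiated with PMA (20 ng/ml, 16-18 h) and held in 2% FBS medium.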
As for `C[C@@](O)(CO)c1ncc(S(N)(=O)=NC(=O)Nc2c3c(cc4c2CC4)CCC3)s1` (single isomer, unassigned) [Example 817, (R) or (S)-2-((R)-1,2-dihydroxypropan-2-yl)-N′-((2,4,5,6-tetrahydro-1H-cyclobuta[f]inden-3-yl)carbamoyl)thiazole-5-sulfonimidamide], the IC50 was 8 to 40 nM.

For `C[C@@](O)(CO)c1ncc(S(N)(=O)=NC(=O)Nc2c3c(cc4c2CC4)CCC3)s1` (single isomer, unassigned) [Example 818, (S) or (R)-2-((R)-1,2-dihydroxypropan-2-yl)-N′-((2,4,5,6-tetrahydro-1H-cyclobuta[f]inden-3-yl)carbamoyl)thiazole-5-sulfonimidamide], the IC50 was 200 to 1000 nM.

Regarding `C[C@@](O)(CO)c1ncc(S(N)(=O)=NC(=O)Nc2c3c(cc4c2C(=O)CC4)CCC3)s1` (single isomer, unassigned) [Example 819, (R) or (S) -2-((R)-1,2-dihydroxypropan-2-yl)-N′-((3-oxo-1,2,3,5,6,7-hexahydro-s-indacen-4-yl)carbamoyl)thiazole-5-sulfonimidamide], the concentration for half-maximal inhibition (IC50) was in the range of 200 to 1000 nM.

For the compound `C[C@@](O)(CO)c1ncc(S(N)(=O)=NC(=O)Nc2c3c(cc4c2C(=O)CC4)CCC3)s1` (single isomer, unassigned) [Example 820, (S) or (R)-2-((R)-1,2-dihydroxypropan-2-yl)-N′-((3-oxo-1,2,3,5,6,7-hexahydro-s-indacen-4-yl)carbamoyl)thiazole-5-sulfonimidamide], the IC50 was 5000 to 30000 nM.

On to `NS(=O)(=NC(=O)Nc1c2c(cc3c1CCC3)CCC2)c1ccc([C@@H]2CCCN2)s1` (single isomer, unassigned) [Example 821, (R) or (S) -N′-((1,2,3,5,6,7-hexahydro-s-indacen-4-yl)carbamoyl)-5-((S)-pyrrolidin-2-yl)thiophene-2-sulfonimidamide], for which the 50% inhibitory concentration (IC50) fell in the range of 200 to 1000 nM.

`NS(=O)(=NC(=O)Nc1c2c(cc3c1CCC3)CCC2)c1ccc([C@@H]2CCCN2)s1` (single isomer, unassigned) [Example 822, (S) or (R) -N′-((1,2,3,5,6,7-hexahydro-s-indacen-4-yl)carbamoyl)-5-((S)-pyrrolidin-2-yl)thiophene-2-sulfonimidamide]: the half-maximal inhibitory concentration (IC50) fell in the range of 1000 to 5000 nM.

Turning to `NS(=O)(=NC(=O)Nc1c2c(cc3c1CCC3)CCC2)c1ccc([C@H]2CCCN2)s1` (single isomer, unassigned) [Example 823, (R) or (S) -N′-((1,2,3,5,6,7-hexahydro-s-indacen-4-yl)carbamoyl)-5-((R)-pyriolidin-2-yl)thiophene-2-sulfonimidamide], the IC50 was in the range of 200 to 1000 nM.

In the case of `NS(=O)(=NC(=O)Nc1c2c(cc3c1CCC3)CCC2)c1ccc([C@H]2CCCN2)s1` (single isomer, unassigned) [Example 824, (S) or (R) -N′-((1,2,3,5,6,7-hexahydro-s-indacen-4-yl)carbamoyl)-5-((R)-pyrrolidin-2-yl)thiophene-2-sulfommidamide], the 50% inhibitory concentration (IC50) is 5000 to 30000 nM.

For the compound `CCn1ccc(S(N)(=O)=NC(=O)Nc2c3c(cc4c2CC4)CCC3)n1` (single isomer, unassigned) [Example 825], the IC50 was in the range of 40 to 200 nM.

Take `CCn1ccc(S(N)(=O)=NC(=O)Nc2c3c(cc4c2CC4)CCC3)n1` (single isomer, unassigned) [Example 826, (S) or (R) -1-ethyl-N′-((2,4,5,6-tetrahydro-1H-cyclobuta[f]inden-3-yl)carbamoyl)-1H-pyrazole-3-sulfonimidamide]: the concentration for half-maximal inhibition (IC50) lay within 1000 to 5000 nM.

For `CC(C)(O)c1ccnc(S(N)(=O)=NC(=O)Nc2c3c(c(C#N)c4c2CCC4)CCC3)c1` (single isomer, unassigned) [Example 827, (R) or (S)-N′-((8-cyano-1,2,3,5,6,7-hexahydro-s-indacen-4-yl)carbamoyl)-4-(2-hydroxypropan-2-yl)pyridine-2-sulfonimidamide], the half-maximal inhibitory concentration (IC50) fell in the range of 200 to 1000 nM.

On to `CC(C)(O)c1ccnc(S(N)(=O)=NC(=O)Nc2c3c(c(C#N)c4c2CCC4)CCC3)c1` (single isomer, unassigned) [Example 828, (S) or (R)-N′-((8-cyano-1,2,3,5,6,7-hexahydro-s-indacen-4-yl)carbamoyl)-4-(2-hydroxypropan-2-yl)pyridine-2-sulfonimidamide], for which the IC50 lay within 1000 to 5000 nM.

On to `CC(C)(CO)c1ncc(S(N)(=O)=NC(=O)Nc2c3c(c(C#N)c4c2CCC4)CCC3)s1` (single isomer, unassigned) [Example 829, (S) or (R)-N′-((8-cyano-1,2,3,5,6,7-hexahydro-s-indacen-4-yl)carbamoyl)-2-(1-hydroxy-2-methylpropan-2-yl)thiazole-5-sulfonimidamide], for which the 50% inhibitory concentration (IC50) is 1000 to 5000 nM.

For the compound `CC(C)(CO)c1ncc(S(N)(=O)=NC(=O)Nc2c3c(c(C#N)c4c2CCC4)CCC3)s1` (single isomer, unassigned) [Example 830, (R) or (S)-N′-((8-cyano-1,2,3,5,6,7-hexahydro-s-indacen-4-yl)carbamoyl)-2-(1-hydroxy-2-methylpropan-2-yl)thiazole-5-sulfonimidamide], the IC50 was 40 to 200 nM.

Turning to `CC(C)(O)c1ccc(S(N)(=O)=NC(=O)Nc2c3c(cc4c2C(=O)CC4)CCC3)cn1` (single isomer, unassigned) [Example 831, (S) or (R)-6-(2-hydroxypropan-2-yl)-N′-((3-oxo-1,2,3,5,6,7-hexahydro-s-indacen-4-yl)carbamoyl)pyridine-3-sulfonimidamide], the IC50 is over 30000 nM.

Regarding `CC(C)(O)c1ccc(S(N)(=O)=NC(=O)Nc2c3c(cc4c2C(=O)CC4)CCC3)cn1` (single isomer, unassigned) [Example 832, (R) or (S)-6-(2-hydroxypropan-2-yl)-N′-((3-oxo-1,2,3,5,6,7-hexahydro-s-indacen-4-yl)carbamoyl)pyridine-3-sulfonimidamide], the IC50 fell in the range of 200 to 1000 nM.

With `NS(=O)(=NC(=O)Nc1c2c(cc3c1CC3)CCC2)c1sc2c(c1F)CNCC2` (single isomer, unassigned) [Example 833, (R) or (S)-3-fluoro-N′-((2,4,5,6-tetrahydro-1H-cyclobuta[f]inden-3-yl)carbamoyl)-4,5,6,7-tetrahydrothieno[3,2-c]pyridine-2-sulfonimidamide], the IC50 lay in the range of 8 to 40 nM.

For `NS(=O)(=NC(=O)Nc1c2c(cc3c1CC3)CCC2)c1sc2c(c1F)CNCC2` (single isomer, unassigned) [Example 834, (S) or (R)-3-fluoro-N′-((2,4,5,6-tetrahydro-1H-cyclobuta[f]inden-3-yl)carbamoyl)-4,5,6,7-tetrahydrothieno[3,2-c]pyridine-2-sulfonimidamide], the IC50 lay within 200 to 1000 nM.

Regarding `CN1CCc2sc(S(N)(=O)=NC(=O)Nc3c4c(cc5c3CC5)CCC4)c(F)c2C1` (single isomer, unassigned) [Example 835, (R) or (S)-3-fluoro-5-methyl-N′-((2,4,5,6-tetrahydro-1H-cyclobuta[f]inden-3-yl)carbamoyl)-4,5,6,7-tetrahydrothieno[3,2-c]pyridine-2-sulfonimidamide], the IC50 lay in the range of 40 to 200 nM.

In the case of `CN1CCc2sc(S(N)(=O)=NC(=O)Nc3c4c(cc5c3CC5)CCC4)c(F)c2C1` (single isomer, unassigned) [Example 836, (S) or (R)-3-fluoro-5-methyl-N′-((2,4,5,6-tetrahydro-1H-cyclobuta[f]inden-3-yl)carbamoyl)-4,5,6,7-tetrahydrothieno[3,2-c]pyridine-2-sulfonimidamide], the IC50 lay in the range of 1000 to 5000 nM.

Regarding `CNCc1csc(S(N)(=O)=NC(=O)Nc2c3c(cc4c2CC4)CCC3)c1` (single isomer, unassigned) [Example 837, (R) or (S)-4-((methylamino)methyl)-N′-((2,4,5,6-tetrahydro-1H-cyclobuta[f]inden-3-yl)carbamoyl)thiophene-2-sulfonimidamide], the IC50 fell in the range of 40 to 200 nM.

With `CNCc1csc(S(N)(=O)=NC(=O)Nc2c3c(cc4c2CC4)CCC3)c1` (single isomer, unassigned) [Example 838, (S) or (R)-4-((methylamino)methyl)-N′-((2,4,5,6-tetrahydro-1H-cyclobuta[f]inden-3-yl)carbamoyl)thiophene-2-sulfonimidamide], the IC50 lay within 200 to 1000 nM.

In the case of `NS(=O)(=NC(=O)Nc1c2c(cc3c1CC3)CCC2)c1nn(C(F)F)cc1F` (single isomer, unassigned) [Example 839, (R) or (S)-1-(difluoromethyl)-4-fluoro-N′-((2,4,5,6-tetrahydro-1H-cyclobuta[f]inden-3-yl)carbamoyl)-1H-pyrazole-3-sulfonimidamide], the IC50 was in the range of 40 to 200 nM.

For `NS(=O)(=NC(=O)Nc1c2c(cc3c1CC3)CCC2)c1nn(C(F)F)cc1F` (single isomer, unassigned) [Example 840, (S) or (R)-1-(difluoromethyl)-4-fluoro-N′-((2,4,5,6-tetrahydro-1H-cyclobuta[f]inden-3-yl)carbamoyl)-1H-pyrazole-3-sulfonimidamide], the IC50 was 1000 to 5000 nM.

As for `NS(=O)(=NC(=O)Nc1c2c(cc3c1CC3)CCC2)c1sc2c(c1F)COCC2` (single isomer, unassigned) [Example 841, (R) or (S)-3-fluoro-N′-((2,4,5,6-tetrahydro-1H-cyclobuta[f]inden-3-yl)carbamoyl)-6,7-dihydro-4H-thieno[3,2-c]pyran-2-sulfonimidamide], the IC50 is 200 to 1000 nM.

For `NS(=O)(=NC(=O)Nc1c2c(cc3c1CC3)CCC2)c1sc2c(c1F)COCC2` (single isomer, unassigned) [Example 842, (S) or (R)-3-fluoro-N′-((2,4,5,6-tetrahydro-1H-cyclobuta[f]inden-3-yl)carbamoyl)-6,7-dihydro-4H-thieno[3,2-c]pyran-2-sulfonimidamide], the IC50 lay in the range of 5000 to 30000 nM.

Take `NS(=O)(=NC(=O)Nc1c2c(cc3c1CC3)CCC2)c1sc(CN2CCC2)cc1F` (single isomer, unassigned) [Example 843, (R) or (S)-5-(azetidin-1-ylmethyl)-3-fluoro-N′-((2,4,5,6-tetrahydro-1H-cyclobuta[f]inden-3-yl)carbamoyl)thiophene-2-sulfonimidamide]: the IC50 was in the range of 40 to 200 nM.

The term IC50 denotes the concentration needed to halve the response being measured.

The values above are taken from patent US20230051589A1, “COMPOUNDS AND COMPOSITIONS FOR TREATING CONDITIONS ASSOCIATED WITH NLRP ACTIVITY” (Novartis AG, priority 2018, published 2023).
